Test results as given in patent publication US12570655B2, “Cysteine covalent modifiers of AKT1 and uses thereof” (Terremoto Biosciences, Inc., priority 2023, dated 2026).

Assays:
[1] = biological target: T1, AKT1 E17K (Homo sapiens, UniProt P31749, DEL120-128/E133D/E17K/G130S/INS132HT/S129A); experiment: Co-crystallization showing covalent complex formation with AKT1 E17K; conditions: AKT1(DrLink)-E17K-NB41 complex, electron density
T1 construct: Akt1(DrLink)-WT/E17K were gene synthesized and cloned by Gibson assembly into the pFastBac vector; His8 followed by TEV site (MSHHHHHHHHGSENLYFQS) (N); DrLink (replaced PH-kinase interdomain linker, part of the construct's name); made in house; host or cells: Akt1(DrLink): baculovirus/Sf9; NB41: E. coli Rosetta 2(DE3)pLysS
T1 sequence (P31749 with tags, fused parts or gaps E17K/DEL120-128/S129A/G130S/INS132HT/E133D): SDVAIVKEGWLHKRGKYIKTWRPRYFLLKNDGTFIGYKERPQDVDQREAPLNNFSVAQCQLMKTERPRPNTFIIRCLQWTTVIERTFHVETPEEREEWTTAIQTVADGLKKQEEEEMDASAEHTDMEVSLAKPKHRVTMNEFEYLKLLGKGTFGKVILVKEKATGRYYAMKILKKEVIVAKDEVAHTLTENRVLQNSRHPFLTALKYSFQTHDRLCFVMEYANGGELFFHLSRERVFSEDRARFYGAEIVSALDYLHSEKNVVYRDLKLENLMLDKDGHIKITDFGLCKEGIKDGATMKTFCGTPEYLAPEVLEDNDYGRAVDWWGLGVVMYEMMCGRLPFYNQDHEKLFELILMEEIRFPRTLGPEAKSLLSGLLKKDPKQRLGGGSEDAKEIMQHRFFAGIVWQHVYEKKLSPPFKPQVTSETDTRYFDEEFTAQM
T1 sequence (as listed by the source partner): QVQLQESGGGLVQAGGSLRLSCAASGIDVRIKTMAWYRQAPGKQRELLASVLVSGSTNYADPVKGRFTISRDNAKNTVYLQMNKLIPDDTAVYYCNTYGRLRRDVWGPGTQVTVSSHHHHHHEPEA
Procedure: (§1) Akt1(DrLink)-NB41 Complex Formation
(§2) NB41 was added to AKT(DrLink)-WT/E17K using a 1.2:1 molar ratio and incubated for 10 minutes at 4° C. Final concentration of 10 mM EDTA was then added to this complex. The complex was purified by gel filtration on Superdex 200 (10/300 GL) column (gel filtration buffer: 20 mM HEPES pH 8.0, 20 mM NaCl, 5 mM DTT). The resulting complex was then concentrated to […] and flash-frozen in liquid nitrogen and stored at −80° C. This complex was then used for crystal formation.
(§3) Crystallization, Data Collection and Structure Determination
(§4) 6 mg/mL AKT1 WT or E17K DrLink-NB41 complex is incubated with 1 mM TMB Compound 13 on ice for 2 hours prior to crystallization trials. Crystals were obtained by the vapor diffusion technique at 20′C after mixing an equal volume of the complex with the well solution containing 17-23% PEG3350, 200 mM Li2SO4, 100 mM Bis Tris Propane pH 6.5-9.0, 10% ethylene glycol. Crystals grew within 3 days. Crystals were cryo protected in mother liquor supplemented with […] and flash cooled in liquid nitrogen for storage and data collection. All diffraction datasets were collected and processed by Helix Biostructures at ESRF beamline TD30B on Sep. 1, 2023. […] The initial structures were determined through molecular replacement with Phaser in CCP4 suite with the structure […] 7APJ as a search model. […]

[2] = biological target: T2, AKT1 WT (Homo sapiens, UniProt P31749, DEL120-128/E133D/G130S/INS132HT/S129A); experiment: Co-crystallization showing covalent complex formation with AKT1 WT; conditions: AKT1(DrLink)-WT-NB41 complex, electron density
T2 construct: Akt1(DrLink)-WT/E17K were gene synthesized and cloned by Gibson assembly into the pFastBac vector; His8 followed by TEV site (MSHHHHHHHHGSENLYFQS) (N); DrLink (replaced PH-kinase interdomain linker, part of the construct's name); made in house; host or cells: Akt1(DrLink): baculovirus/Sf9; NB41: E. coli Rosetta 2(DE3)pLysS
Procedure: as §1, §2, §3, §4
Target sequence in this assay (P31749 with tags, fused parts or gaps DEL120-128/S129A/G130S/INS132HT/E133D): as the sequence (P31749 with tags, fused parts or gaps E17K/DEL120-128/S129A/G130S/INS132HT/E133D) above, with K16E counted along it

[3] = biological target: T2, AKT1 WT; experiment: Compound 13/AKT1 WT co-crystallization complex, crystal structure; format: binding; conditions: FIG. 1C
Target sequence in this assay (P31749 with tags, fused parts or gaps DEL120-128/S129A/G130S/INS132HT/E133D): as the sequence (P31749 with tags, fused parts or gaps E17K/DEL120-128/S129A/G130S/INS132HT/E133D) above, with K16E counted along it

[4] = biological target: T3, AKT1 WT (Homo sapiens, UniProt P31749); experiment: Live cell AKT1 WT target engagement by NanoBRET competitive probe displacement; format: cell-based; conditions: HEK293 cells transfected with kinase-NanoLuciferase fusion, 2 h at 37° C.
T3 construct: expressed in transfected cells; host or cells: HEK293
T3 sequence (P31749 whole entry, the tested form may be a part): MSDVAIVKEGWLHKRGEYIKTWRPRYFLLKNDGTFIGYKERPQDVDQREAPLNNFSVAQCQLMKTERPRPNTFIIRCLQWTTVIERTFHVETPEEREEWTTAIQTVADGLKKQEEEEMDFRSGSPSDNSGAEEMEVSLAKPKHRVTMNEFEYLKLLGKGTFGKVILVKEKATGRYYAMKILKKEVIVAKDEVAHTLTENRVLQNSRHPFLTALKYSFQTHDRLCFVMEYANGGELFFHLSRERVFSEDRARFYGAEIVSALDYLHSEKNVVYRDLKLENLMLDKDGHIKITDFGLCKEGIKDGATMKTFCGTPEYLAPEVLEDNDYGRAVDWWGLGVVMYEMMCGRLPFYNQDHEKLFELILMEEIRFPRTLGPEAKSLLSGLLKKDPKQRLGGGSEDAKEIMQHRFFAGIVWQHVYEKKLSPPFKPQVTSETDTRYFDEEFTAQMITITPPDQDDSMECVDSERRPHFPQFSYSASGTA
Method in brief: (§5)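 Luminescence ratio 600/460 nm served as readout after HEK293 cells bearing transiently expressed kinase–NanoLuciferase fusions were exposed 2 h at 37 °C to test compound alongside an ATP-competitive fluorescent tracer near EC50. Extracellular signal was quenched by a luciferase inhibitor.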

[5] = tested on: LAPC4 prostate cancer cells; experiment: Antiproliferative effects in LAPC4 cells (CellTiter Glo); format: cell-based; conditions: Homo sapiens, LAPC4, 72 h, LAPC4 cells (AKT1 E17K allele), read-out: LAPC4 proliferation IC50
Method in brief: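 IC50 values reflect 72 h compound treatment of cells plated at 1,000 per well, with CellTiter Glo luminescence as the viability read-out.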

[6] = biological target: T4, AKT2 (Homo sapiens, UniProt P31751); experiment: Live cell AKT2 target engagement by NanoBRET competitive probe displacement; format: cell-based; conditions: HEK293 cells transfected with kinase-NanoLuciferase fusion, 2 h at 37° C.
T4 construct: expressed in transfected cells; host or cells: HEK293
T4 sequence (P31751 whole entry, the tested form may be a part): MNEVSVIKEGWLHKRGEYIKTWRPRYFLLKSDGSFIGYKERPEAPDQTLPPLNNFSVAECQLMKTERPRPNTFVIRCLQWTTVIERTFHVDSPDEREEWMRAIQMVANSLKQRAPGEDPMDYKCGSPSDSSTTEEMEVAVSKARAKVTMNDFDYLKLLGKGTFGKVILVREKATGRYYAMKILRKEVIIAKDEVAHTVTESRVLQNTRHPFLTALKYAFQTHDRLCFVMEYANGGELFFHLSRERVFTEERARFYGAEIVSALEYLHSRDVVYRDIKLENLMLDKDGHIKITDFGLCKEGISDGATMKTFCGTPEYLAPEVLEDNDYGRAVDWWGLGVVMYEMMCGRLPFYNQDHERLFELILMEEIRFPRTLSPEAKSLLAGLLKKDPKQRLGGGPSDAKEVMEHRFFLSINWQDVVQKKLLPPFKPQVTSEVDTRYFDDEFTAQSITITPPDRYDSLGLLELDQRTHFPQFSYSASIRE
Method in brief: as §5

[7] = biological target: T5, AKT E17K (Homo sapiens, UniProt P31749, DEL120-128/E133D/E17K/G130S/INS132HT/S129A); experiment: Compound 13/AKT E17K co-crystallization complex, crystal structure; format: binding; conditions: FIG. 2C
T5 construct: Akt1(DrLink)-WT/E17K were gene synthesized and cloned by Gibson assembly into the pFastBac vector; His8 followed by TEV site (MSHHHHHHHHGSENLYFQS) (N); DrLink (replaced PH-kinase interdomain linker, part of the construct's name); made in house; host or cells: Akt1(DrLink): baculovirus/Sf9; NB41: E. coli Rosetta 2(DE3)pLysS
T5 sequence (P31749 with tags, fused parts or gaps E17K/DEL120-128/S129A/G130S/INS132HT/E133D): as the sequence (P31749 with tags, fused parts or gaps E17K/DEL120-128/S129A/G130S/INS132HT/E133D) above
T5 sequence (as listed by the source partner): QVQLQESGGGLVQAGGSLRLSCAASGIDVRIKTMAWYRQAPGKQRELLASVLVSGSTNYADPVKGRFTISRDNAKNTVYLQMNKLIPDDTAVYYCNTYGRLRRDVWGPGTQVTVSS

[8] = biological target: T6, AKT1 E17K (Homo sapiens, UniProt P31749, E17K); experiment: Live cell AKT1 E17K target engagement by NanoBRET competitive probe displacement; format: cell-based; conditions: HEK293 cells transfected with kinase-NanoLuciferase fusion, 2 h at 37° C.
T6 construct: expressed in transfected cells; host or cells: HEK293
T6 sequence (P31749 whole entry E17K, the tested form may be a part): as the sequence (P31749 whole entry, the tested form may be a part) above, with E17K counted along it
Method in brief: as §5

Compound | covalent bond formation in co-crystal structure [1] | covalent bond formation in co-crystal structure [2] | IC50 [4] | IC50 [5] | IC50 [6] | IC50 [8] | interaction seen in the co-crystal structure (site of covalent attachment) [3] | interaction seen in the co-crystal structure (site of covalent attachment) [7]
C=CC(=O)N1CCC(N[C@H]2CCc3cc(-n4c(-c5cccnc5N)nc5ccc(-n6ccc(OC7CC7)n6)nc54)ccc32)CC1 [Example 314, 1-(4-{[(1S)-5-[2-(2-aminopyridin-3-yl)-5-(3-cyclopropoxypyrazol-1-yl)imidazo[4,5-b]pyridin-3-yl]-2,3-dihydro-1H-inden-1-yl]amino}piperidin-1-yl)prop-2-en-1-one] |  |  | 0.0951 µM | 0.0549 µM | 0.0238 µM | 0.00744 µM |  | 
C=CC(=O)N1CCC(N[C@H]2CCc3cc(-n4c(-c5cccnc5N)nc5ccc(-c6nnc(C7CC7)s6)nc54)ccc32)CC1 [Example 320, (S)-1-(4-((5-(2-(2-aminopyridin-3-yl)-5-(5-cyclopropyl-1,3,4-thiadiazol-2-yl)-3H-imidazo[4,5-b]pyridin-3-yl)-2,3-dihydro-1H-inden-1-yl)amino)piperidin-1-yl)prop-2-en-1-one] |  |  | 0.29 µM | 0.0782 µM | 0.0455 µM | 0.0118 µM |  | 
C=CC(=O)N1CCC(N[C@H]2CCc3cc(-n4c(-c5cccnc5N)nc5ccc(-n6ccc(C7(C#N)CC7)n6)nc54)ccc32)CC1 [Example 322, (S)-1-(1-(3-(1-((1-acryloylpiperidin-4-yl)amino)-2,3-dihydro-1H-inden-5-yl)-2-(2-aminopyridin-3-yl)-3H-imidazo[4,5-b]pyridin-5-yl)-1H-pyrazol-3-yl)cyclopropane-1-carbonitrile] |  |  | 0.247 µM | 0.137 µM | 0.0414 µM | 0.00551 µM |  | 
C=CC(=O)N1CCC(N[C@H]2CCc3cc(-n4c(-c5cccnc5N)nc5c(OC)cc(-n6cccn6)nc54)ccc32)CC1 [Example 337, 1-(4-{[(1S)-5-[2-(2-aminopyridin-3-yl)-7-methoxy-5-(pyrazol-1-yl)imidazo[4,5-b]pyridin-3-yl]-2,3-dihydro-1H-inden-1-yl]amino}piperidin-1-yl)prop-2-en-1-one] |  |  | 0.0303 µM | 0.0995 µM | 0.0294 µM | 0.00633 µM |  | 
C=CC(=O)N1CCN(N[C@H]2CCc3cc(-n4c(-c5cccnc5N)nc5ccc(C6CC6)nc54)ccc32)CC1 [Example 349] |  |  | 1.64 µM | 1.16 µM | 0.432 µM | 0.032 µM |  | 
C=CC(=O)N1CCN(N[C@@H]2CCc3cc(-n4c(-c5cccnc5N)nc5ccc(C6CC6)nc54)ccc32)CC1 [Example 350] |  |  | 2.51 µM | 1.09 µM | 0.416 µM | 0.0727 µM |  | 

Continued by falling IC50 [4], values first:

covalent bond formation in co-crystal structure [1] | covalent bond formation in co-crystal structure [2] | IC50 [4] | IC50 [5] | IC50 [6] | IC50 [8] | Compound | interaction seen in the co-crystal structure (site of covalent attachment) [3] | interaction seen in the co-crystal structure (site of covalent attachment) [7]
 |  | 2.67 µM | 0.872 µM | 0.362 µM | 0.032 µM | C=CC(=O)N1CCC(N[C@H]2CCc3cc(-n4c(-c5cccnc5N)nc5ccc(C(F)(F)F)nc54)ccc32)CC1 [Example 348] |  | 
 |  | 0.183 µM | 0.12 µM | 0.0703 µM | 0.0143 µM | C=CC(=O)N1CCC(N[C@H]2CCc3cc(-n4c(-c5cccnc5N)nc5c(C#N)cc(-n6cccn6)nc54)ccc32)CC1 [Example 315, 2-(2-aminopyridin-3-yl)-3-[(1S)-1-{[1-(prop-2-enoyl)piperidin-4-yl]amino}-2,3-dihydro-1H-inden-5-yl]-5-(pyrazol-1-yl)imidazo[4,5-b]pyridine-7-carbonitrile] |  | 
 |  | 0.158 µM | 0.0807 µM | 0.0242 µM | 0.00719 µM | C=CC(=O)N1CCC(N[C@H]2CCc3cc(-n4c(-c5cccnc5N)nc5ccc(-n6ccc(C7CCOCC7)n6)nc54)ccc32)CC1 [Example 321, 1-(4-{[(1S)-5-[2-(2-aminopyridin-3-yl)-5-[3-(oxan-4-yl)pyrazol-1-yl]imidazo[4,5-b]pyridin-3-yl]-2,3-dihydro-1H-inden-1-yl]amino}piperidin-1-yl)prop-2-en-1-one] |  | 
covalent bond formation with C296 | covalent bond formation with C296 | 0.017 µM | 0.144 µM | 0.224 µM | 0.0561 µM | C=CC(=O)N1CCC(N[C@H]2CCc3cc(-n4c(-c5cccnc5N)nc5ccc(-n6cccn6)nc54)ccc32)CC1 [Example 13, 1-(4-{[(1S)-5-[2-(2-aminopyridin-3-yl)-5-(pyrazol-1-yl)imidazo[4,5-b]pyridin-3-yl]-2,3-dihydro-1H-inden-1-yl]amino}piperidin-1-yl)prop-2-en-1-one] | covalent bond between C296 cysteine residue of AKT1 WT and Compound 13 | covalent bond between C296 cysteine residue of AKT E17K and Compound 13
